The values that follow come from patent publication US12673918B2, “Small molecule RPN13 inhibitors with antitumor properties” (The Johns Hopkins University, priority 2019, dated 2026).

pIC50: −log10 of the molar value. Read-outs that look alike come from different tables or passages of the source.

The subject of one data set is UWB1.289 + BRCA1. The data set can be described thus: MTT cytotoxicity assay, UWB1.289 + BRCA1. The format is cell-based. The settings on record: Tables 3A/4B/4C, BRCA1 + Ve. On the technique in general: Tetrazolium assays rely on reduction of a dye to a coloured formazan, in cell work by metabolically active cells.
Data set [1] relates to SKOV3.
The subject of data set [2] is HeLa. In words: MTT cytotoxicity assay, HeLa. The settings on record: read-out: cytotoxicity IC50 HeLa, Tables 3A/4B/4C.
Data set [3] has as its system SiHa. The data set can be described thus: MTT cytotoxicity assay, SiHa. The following applies: read-out: cytotoxicity IC50 SiHa; Tables 3A/4B/4C; MTT assay.
A further data set has as its system KLE. In words: MTT cytotoxicity assay, KLE. The settings on record: read-out: cytotoxicity IC50 KLE, Tables 3A/4B/4C.
In data set [4] the test system is CaSki. The data set can be described thus: MTT cytotoxicity assay, CaSki. The settings on record: read-out: cytotoxicity IC50 CasKi; Tables 3A/4B/4C; MTT assay.
For a further data set, the system named is TOV21G. In words: MTT cytotoxicity assay, TOV21G. The following applies: read-out: cytotoxicity IC50 TOV21G; Tables 3A/4B/4C; MTT assay.
For another data set, the system named is TC1-Lu. In words: MTT cytotoxicity assay, TC1-Lu. The settings on record: read-out: cytotoxicity IC50 TC1-Lu; Tables 3A/4B/4C; MTT assay.
For the next data set, the system named is HEC-1A. The data set can be described thus: MTT cytotoxicity assay, HEC-1A. The following applies: read-out: cytotoxicity IC50 HEC-1A, Tables 3A/4B/4C.
Another data set concerns C2KmFvB1. The data set can be described thus: MTT cytotoxicity assay, C2KmFvB1. The following applies: read-out: cytotoxicity IC50 C2KmFvB1, Tables 3A/4B/4C, BRCA2 + Ve.
For the next data set, the system named is ES2. The data set can be described thus: MTT cytotoxicity assay, ES2. The settings on record: read-out: cytotoxicity IC50 ES2; Tables 3A/4B/4C; MTT assay.
The next data set has as its system DLD1. The data set can be described thus: MTT cytotoxicity assay, DLD1. The settings on record: Homo sapiens, DLD-1, read-out: cytotoxicity IC50 DLD1.
For another data set, the system named is MCF7. The data set can be described thus: MTT cytotoxicity assay, MCF7. The following applies: read-out: cytotoxicity IC50 MCF7, Tables 3A/4B/4C.
Data set [5] has as its system SKOV3. The data set can be described thus: MTT cytotoxicity assay, SKOV3. The following applies: Homo sapiens, SK-OV-3, read-out: cytotoxicity IC50 SKOV3.
The subject of data set [6] is OVCAR3. The data set can be described thus: MTT cytotoxicity assay, OVCAR3. The settings on record: read-out: cytotoxicity IC50 OVCAR3; Tables 3A/4B/4C; MTT assay.
For the next data set, the system named is HCC1395. The data set can be described thus: MTT cytotoxicity assay, HCC1395. The settings on record: Homo sapiens, HCC1395, read-out: cytotoxicity IC50 HCC1395.
The next data set has as its system ID8-vegf. In words: MTT cytotoxicity assay, ID8-vegf. The following applies: read-out: cytotoxicity IC50 ID8-vegf, Tables 3A/4B/4C.
Data set [7] relates to DLD-BRCA2-Ve. The data set can be described thus: MTT cytotoxicity assay, DLD-BRCA2-Ve. The following applies: read-out: cytotoxicity IC50 DLD-BRCA2-Ve.
For data set [8], the system named is HeLa.
For data set [9], the system named is SiHa.
For data set [10], the system named is CaSki.
Data set [11] relates to OVCAR3.
The test system of data set [12] is BR5-FvB1.
In data set [13] the test system is BR5-Luc.
Data set [14] deals with DLD-BRCA2-Ve.
The test system of data set [15] is DLD-Seckle.
The subject of data set [16] is RPE1-ATMKO.
For a further data set, the system named is multiple myeloma. The following applies: cited from earlier work.
The subject of a further data set is SSC90. The following applies: human.
Data set [17] concerns VU93.
The next data set has as its system FaDu. In words: cells. The following applies: Homo sapiens, read-out: cytotoxicity IC50 FaDu.
The next data set deals with OV2008. The data set can be described thus: MTT cytotoxicity assay, OV2008. The settings on record: read-out: cytotoxicity IC50 OV2008.
The nature of data set [18]: MTT cytotoxicity assay, RPE1. The following applies: human, RPE1 cells.
Data set [19] has as its system VU93. The data set can be described thus: MTT cytotoxicity assay, VU93. The following applies: read-out: cytotoxicity IC50 VU93, Tables 3A/4B/4C.
Data set [20] deals with BR5-Luc. The data set can be described thus: MTT cytotoxicity assay, BR5-Luc. The following applies: read-out: cytotoxicity IC50 BR5-Luc, Tables 3A/4B/4C, BRCA2 − VE.
Data set [21] relates to BR5-FvB1. The data set can be described thus: MTT cytotoxicity assay, BR5-FvB1. The following applies: Mus musculus, read-out: cytotoxicity IC50 BR5-FvB1.
The test system of data set [22] is DLD-Seckle. The data set can be described thus: MTT cytotoxicity assay, DLD-Seckle. The following applies: read-out: cytotoxicity IC50 DLD-Seckle.
In data set [23] the test system is RPE1-ATMKO. In words: MTT cytotoxicity assay, RPE1-ATMKO. The following applies: read-out: cytotoxicity IC50 RPE1-ATMKO.
For a further data set, the system named is PEA2. The settings on record: read-out: cytotoxicity IC50 PEA2; Tables 3A/4B/4C; MTT assay.
In a further data set the test system is PEO4. The following applies: read-out: cytotoxicity IC50 PEO4; Tables 3A/4B/4C; MTT assay.

Take `C[C@@H]1/C(=C\c2ccc([N+](=O)[O-])cc2)C(=O)/C(=C/c2ccc([N+](=O)[O-])cc2)CN1C(=O)[C@@H](N)Cc1ccccc1` [RA413R]: the pIC50 is greater than 7.70 with UWB1.289 + BRCA1; 6.79 in the data set with SKOV3 [1]; 6.76 in the data set with HeLa [2]; 6.86 in the data set on SiHa [3]; 5.84 in the data set on KLE; 6.66 in the data set with CaSki [4]. In addition, the pIC50 was 7.70 with TOV21G, 5.75 in the data set with TC1-Lu and 6.57 in the data set with HEC-1A.
Consider `CC[C@]1(O)C[C@H]2CN(CCc3c([nH]c4ccccc34)[C@@](C(=O)OC)(c3cc4c(cc3OC)N(C=O)[C@H]3[C@@](O)(C(=O)OC)[C@H](OC(C)=O)[C@]5(CC)C=CCN6CC[C@]43[C@@H]65)C2)C1` [Vin, Vincristine], for which, in the data set on C2KmFvB1, the pIC50 was 7.87.
Turning to `CC1/C(=C\c2ccccc2F)C(=O)/C(=C/c2ccccc2F)CN1C(=O)[C@@H](N)Cc1ccccc1` (mixture of isomers) [RA467], the pIC50 is 6.95 in the data set on ES2; 6.32 in the data set with DLD1; 6.12 in the data set on MCF7; 6.90 in the data set on SKOV3 [5]; 6.92 with OVCAR3 [6]; 6.60 with HCC1395. Moreover, the pIC50 was 6.78 with ID8-vegf and 6.30 in the data set on DLD-BRCA2-Ve [7].
As for `C=CC(=O)N1CC/C(=C\c2ccc(F)c([N+](=O)[O-])c2)C(=O)/C(=C/c2ccc(F)c([N+](=O)[O-])c2)C1` [VLX1570], the pIC50 in the data set on HeLa [8] was 6.95; in the data set with SiHa [9], 7.27; with CaSki [10], 7.17; in the data set on OVCAR3 [11], 7.74; with SKOV3 [1], 6.89; in the data set with SKOV3-TR, 6.52. Also, the pIC50 in the data set with BR5-FvB1 [12] was 6.60; with BR5-Luc [13], 8.32; in the data set on DLD-BRCA2-Ve [14], 5.07; in the data set on DLD-Seckle [15], 6.02; in the data set on RPE1-ATMKO [16], 6.02. The “dose at which anti-myeloma effects were observed” value in the data set on multiple myeloma (phase I patients (70)) is no less than 0.6 mg/kg. Besides, the adverse events result in the data set on multiple myeloma (two patients at the 1.2 mg/kg dose level (70)) is “severe, abrupt, and progressive respiratory insufficiency, culminating in death”.
On to `CC1/C(=C\c2ccc([N+](=O)[O-])cc2)C(=O)/C(=C/c2ccc([N+](=O)[O-])cc2)CN1C(=O)[C@@H](N)Cc1ccccc1` (mixture of isomers) [RA413], for which the pIC50 was 7.02 in the data set on HeLa [8] (human); 6.51 in the data set on SSC90; 6.20 with VU93 [17]; 6.52 with FaDu; 7.07 in the data set with SKOV3 [5]; 7.38 in the data set with TOV21G. Moreover, the pIC50 in the data set with OV2008 is 6.82; in the data set with ID8-vegf it was 6.72.
For `O=C(c1cc(Cc2n[nH]c(=O)c3ccccc23)ccc1F)N1CCN(C(=O)C2CC2)CC1` [OLA, olaparib, reference compound], the pIC50 in the data set with DLD1 was 4.64; in data set [18] it was 4.63; in the data set on VU93 [19] it was 7.52; with BR5-Luc [20], 6.30; in the data set on HCC1395, 6.12; in the data set on BR5-FvB1 [21], 7.52. Besides, the pIC50 in the data set with C2KmFvB1 is 5.10; with DLD-Seckle [22] it was 8.77; in the data set with RPE1-ATMKO [23], 8.59; in the data set on DLD-BRCA2-Ve [7], 8.60.
For the molecule `CC1/C(=C\c2ccc(F)cc2)C(=O)/C(=C/c2ccc(F)cc2)CN1C(=O)[C@@H](N)Cc1ccccc1` (mixture of isomers) [RA462], the pIC50 in the data set on ES2 was 7.02; in the data set on MCF7, 6.12; with SKOV3 [5], 6.95; in the data set with OVCAR3 [6], 6.98; in the data set on HCC1395 it was 6.60; with ID8-vegf it was 6.91.
In the case of `N.N.[Cl][Pt][Cl]` [CP, Cisplatin], the values for the pIC50 with PEA2 and with PEO4 were 5.01 and 4.71, respectively.
